From patent publication US11180744B2, “Acinetobacter lysins” (priority 2014, dated 2021)
“And” between values parts separate entries of the source, which are not always exact repeats. Equal values may be shown once. Read-outs that look alike come from different tables or passages of the source. Where no end group is shown, it is not given here.

Assays:
[1] = tested on: A. baumannii strains #1791, S5 and ATCC17978; assay: In vitro bactericidal activities of peptides (Example 10); type: cell-based
in vitro = type: cell-based; conditions: B cell line
B cell line = assay: in vitro; type: cell-based
[2] = tested on: A. baumannii strains #1791 and ATCC17978; conditions: Mueller-Hinton broth (pH 7.9), 37° C., 24 hour
[3] = tested on: A. baumannii strains #1791 and ATCC17978; assay: microbe, parasite or virus in culture; conditions: Acinetobacter baumannii, ATCC17978, 24 h, 37° C.
Human B-cells = assay: B cell survival, CellTiter 96 Non-Radioactive Cell Proliferation Assay; conditions: highest concentration tested (80 μM); 1 hr at 37° C.
red blood cells (RBC) = assay: Hemolysis, release of hemoglobin (OD405); conditions: 80-0.3125 μM; 1 hour at 37° C.; Triton X-100 positive control
[4] = tested on: A. baumannii clinical isolates; assay: Crude lysate clearing zones on A. baumannii soft agar plates; conditions: thirteen A. baumannii clinical isolates
A. baumannii = assay: Survival of mice after lethal injection of A. baumannii; type: in vivo, C57BL/6 mice; conditions: 1 mg of F307 IP two hours after 10^8 CFU IP; 14 days after infection
Description: Twenty-two C57BL/6 mice were given 10^8 CFU of A. baumannii strain intraperitoneally (IP). Two hours later, two mice were euthanized and organs examine as described below, ten mice injected IP with 1 mg of F307 and ten mice were injected IP with control vehicle.

[5] = tested on: A. baumannii 1791 biofilm; assay: In vitro treatment of catheter adherent A. baumannii 1791 biofilm with F307
[6] = tested on: A. baumannii strain 1791 biofilm; assay: Mouse catheter model; type: in vivo, BALB/C mice; conditions: 250 μl of F307 (1 mg) injected into catheter under the dermis, repeated after 4 hours
Description: Mouse Catheter Model: Several 3 inch section of catheter tubing were seeded (1:1000) with A. baumannii strain 1791. A. baumannii biofilms were formed as described above. The back of twenty BALB/C mice were shaved, their backs were sterilized, and then an incision was made to place a 1 inch section of the catheter with a biofilm already formed under the dermis of the back. The incisions were then stapled shut. After 24 hours, 250 μl of F307 (1 mg) (n=10) or 250 μl control vehicle (n=10) was injected directly into the catheter that was under the dermis of the mouse. The treatment was repeated after 4 hours. After 3 hours the catheters were removed from the mice, and assayed as described in Experiment 4.

[7] = pH 7.9, strain #1791, Mueller-Hinton broth (pH 7.9)
[8] = pH 7.9, strain ATCC17978, Mueller-Hinton broth (pH 7.9)

With SQSRESQC (Ex) [reference compound] the “bactericidal activity of SQSRESQC alone or combined with P307” value ([1]; strains #1791 and S5, same molar concentration as 50 μg/mL P307) was “no activity”.

For “P307CS-8: SEQ ID NO: 51: NAKDYKGAAAEFPKWNKAGGRVLAGLVKRRKCSQRQSES (P307CS-8)”, the “activity of P307CS-8 compared with P307SQ-8C” value ([1]; scrambled last eight amino acids) was “comparable”.

In the case of “P307AE-8: SEQ ID NO: 49: NAKDYKGAAAEFPKWNKAGGRVLAGLVKRRKAEMELFLK (P307AE-8)”, the “decrease in viable bacteria” value ([1]; 50 μg/mL, 2 hours, room temperature) is reported as ~3.8 log-unit.

In the case of NAKDYKGAAAEFPKWNKAGGRVLAGLVKRRK [P307], the viability at 5 min, 2 μg (in vitro) is reported as 95.2%, the viability at 5 min, 20 μg (in vitro) is reported as 97.2% and the viability at 5 min, 200 μg (in vitro) is reported as 94.6%. It also gave a viability at 0.5 h, 2 μg (in vitro) of 76.9%, a viability at 0.5 h, 20 μg (in vitro) of 88.6% and a viability at 1 h, 2 μg (in vitro) of 89.3%. For the same molecule, the viability at 1 h, 20 μg (in vitro) was 89.7%, the viability at 1 h, 200 μg (in vitro) was 71.4% and the viability at 2 h, 2 μg (in vitro) was 92.5%. The viability at 2 h, 20 μg (in vitro) was 90.3%, the viability at 2 h, 200 μg (in vitro) was 71.9% and the viability at 3 h, 2 μg (in vitro) was 93.8%. The viability at 3 h, 20 μg (in vitro) was 91%, the viability at 3 h, 200 μg (in vitro) was 58.6% and the viability at 24 h, 2 μg (in vitro) was 96.3%. For the same molecule, the viability at 24 h, 20 μg (in vitro) was 94.2%, the viability at 24 h, 200 μg (in vitro) was 76.3% and the “effect on cell number of a B cell line” value (B cell line) was “only a slight effect on cell number”.

With Polymyxin B [reference compound] the MIC ([2]; strain #1791) was 0.25 μg/mL and 0.19 μM and the MIC ([2]; strain ATCC17978) was 0.25 μg/mL and 0.19 μM.

With `C[C@H]1COc2c(N3CCN(C)CC3)c(F)cc3c(=O)c(C(=O)O)cn1c23` [Levofloxacin] the MIC [3, 7] was 6 µg/mL and 16.6 µM and the MIC [3, 8] was ≤ 0.1 µg/mL and 0.3 µM.

With “NAKDYKGAAAEFPKWNKAGGRVLAGLVKRRKSQSRESQC [P307SQ-8C]” the “viability of B cells” value (Human B-cells) was “remains the same as the buffer control” and the “integrity of RBCs (hemolysis)” value (red blood cells (RBC)) was “not affected”.

With `CC(C)(O/N=C(\C(=O)N[C@@H]1C(=O)N2C(C(=O)[O-])=C(C[n+]3ccccc3)CS[C@H]12)c1csc(N)n1)C(=O)O` [Ceftazidime] the MIC [3, 7] was 250 µg/mL and 457 µM and the MIC [3, 8] was 12 µg/mL and 21.9 µM.

B1: F307: phage lysin polypeptide, SEQ ID NO: 1, 16 kDa (protein, listed as Acinetobacter baumannii)
chain: VKTSNPGVDLIKGFEGLRLKAYDDGVGVWTIGFGTIKYPNGVRVKKGDTCTESQAEEYLRNDLVVFESAINRLVKVPLNQNQFDALASFTYNLGEGNLSISTLLKKLNAKDYKGAAAEFPKWNKAGGRVLAGLVKRRKAEMELFLK
For B1, the “percent of Acinetobacter strains lysed” value [4] was “about 90%”, the survival (A. baumannii) was 50% and the “drop in the number of colony forming units” value ([5]; 3-day biofilm on catheter, after 30 minutes of treatment) was ~4 log. The CFU ([5]; 15 minutes F307 treatment) was 9.0 × 10^4 CFU, the CFU ([5]; 30 minutes F307 treatment) was 6.0 × 10^3 CFU and the “reduction of bacterial counts compared with control” value [6] was “approximately 2 logs”.
